Results reported in US20230201025A1, “PROCESS FOR FABRICATING A DENTAL APPLIANCE AND ACCOMPANYING USE CASES” (Bottmedical AG, priority 2020, published 2023).

Key:
Streptococcus mutans = assay: calorimetric measurement of suppression of bacterial growth (S. mutans); type: cell-based; details: single essential oil component at 0.1% in BHI
Experimental: (§1) Finally, additional calorimetric experiments were performed to measure the capability of different agents of suppressing the growth of bacteria such as Streptococcus mutans and Streptococcus mitis. The different agents 7 were applied as a solution containing a single essential oil component at a concentration of 0.1% in BHI. As figure of merits, the lag phase, defined as the postponement in time of the growth of the bacteria and measured in hours, and the growth rate (increase in number of bacteria/time), measured in J/h, of the Streptococcus populations were determined as follows: […]

Streptococcus mitis = assay: calorimetric measurement of suppression of bacterial growth (S. mitis); type: cell-based; details: single essential oil component at 0.1% in BHI
Experimental: as §1

Structure (SMILES) | growth rate (J/h) of S. mutans (Streptococcus mutans) | lag phase (h) of S. mutans growth (Streptococcus mutans) | growth rate (J/h) of S. mitis (Streptococcus mitis) | lag phase (h) of S. mitis growth (Streptococcus mitis) | growth rate (J/h) of S. mutans (Streptococcus mutans; listed as cinnamaldehyde)
C/C=C/c1ccc(OC)cc1 [trans-anethole] | 0.03 J/h | >24 h | 0.13 J/h | 6.4 h | –
CC12CCC(CC1)C(C)(C)O2 [Eucalyptol] | 1.3 J/h | 5 h | 0.14 J/h | 2 h | –
COC(=O)c1ccccc1O [methyl salicylate] | 1.2 J/h | 5 h | 0.4 J/h | 23 h | –
C=C(C)[C@H]1CC=C(C)CC1 [Limonene] | – | – | 0.11 J/h | 3 h | –
O=CC=Cc1ccccc1 [cinnam aldehyde, cinnamaldehyde] | 0 J/h | >24 h | 0.15 J/h | 6.2 h | without any measurable growth
